Results taken from patent US4709027A, “Bicyclic spirosulfonimides with psychotropic activity” (American Home Products Corporation, priority 1986, dated 1987).
Like-named read-outs stand apart in the source and are kept apart here.

Columns and labels:
[1] = conditioned avoidance (shelf-jump response) test; assay type: in vivo, male CD rats; conditions: i.p., rats
From the text: A test designed to determine the potential antipsychotic activity of the compounds of the invention is the conditioned avoidance (shelf-jump response) test.
Male CD rats (Charles River) maintained at approximately 400-450 gm body weight are used. […] A moveable wall, controlled by a motor, determines whether the rat has access to the shelf at any time during the experiment. The experimental chamber also contains a house light and sonalert. A steel grid floor in the main chamber is wired for presentation of electric shock. Each trial consists of a fifteen-second warning tone (conditioned stimulus), continuing for an additional fifteen seconds accompanied by electric shock, (unconditioned stimulus). A response (jumping onto the exposed shelf of the upper chamber) occurring during the initial fifteen-second warning tone is considered an avoidance response, while a response occurring during shock delivery is considered an escape response. Trials are presented on a fixed interval schedule of one minute. The session consists of thirty-six trials. Animals are run twice weekly with control sessions always preceding a drug run, and with at least one day intervening. Compounds are administered i.p. or p.o. at appropriate pre-treatment times to a minimum of five rats at each dose level over a range of doses.
The following experimental parameters are recorded by computer: (1) the number of avoidance responses, (2) the number of escape responses, and (3) the number of trials in which no response occurred.
(§1) Response counts are summed over all subjects at a given dose. […] This number is expressed as a percentage of the total trials. Control performance is arbitrarily assigned a value of 100% for avoidance and the dose calculated to produce a 50% block in avoidance responding (AB50) is obtained from a dose-effect regression line fitted by the method of least squares. Potential anti-psychotic compounds suppress avoidance responding and increase escape responding.

[2] = test system: 5-HT-1A serotonin receptor; assay: ex vivo inhibition of 5-HT-1A serotonin receptor binding (3H-8-OH-DPAT, hippocampal membranes); set-up: species or system rats; conditions: at 1 μM of drug concentration
Method: Several groups of rats (4-6 rats/group) are injected with test compound or the appropriate vehicle. Thirty minutes later, unless otherwise noted, rats are decapitated and their brains removed. Various brain regions are dissected and rapidly frozen and maintained at -70° C. until used.
Hippocampal tissue is dissected and homogenized on ice in 40 vols of buffer (50 mM Tris HCl, pH=7.7) using a Polytron homogenizer at setting 5 for 3×15 sec bursts. The homogenate is then centrifuged at 20,000 rpm (RC5-B; 50,000 g) and the supernatant discarded. The pellet is resuspended in 40 vols of the same buffer and incubated at 37° C. for 10 minutes to aid in the removal of endogenous serotonin. the homogenate is then centrifuged (as above) and the supernatant discarded. […]
The homogenate (50 μl; 0.4-0.6 mg protein/sample) is incubated with 100 μl (1.5-1.8 nM) ^3 H-8-hydroxy-2-(di-n-propylamino)tetraline in a final volume of 2 ml of buffer for 10 minutes at 37° C. […] The vials are then counted in a Packard 460 CD scintillation counter.
Specific binding is calculated for each of the treatment protocols and is defined as total binding less binding in the presence of excess unlabeled serotonin (1 μM). Specific binding obtained in vehicle-treated rats is compared to that obtained in animals receiving a single or various doses of test compound and expressed as percent of control.

[3] = conditioned avoidance (discrete trial) test; assay type: in vivo, male CD rats; conditions: Rattus norvegicus, po, rats, read-out: AB50 (dose producing 50% block in avoidance responding), discrete trial
Method: The antipsychotic activity of the compounds of the invention is assessed via the conditioned avoidance (discrete trial) test. This test has excellent clinical correlation for antipsychotic activity.
Male CD rats (Charles River) maintained at approximately 400-450 gm body weight are used. Rats trained previously are placed in plexiglass experimental chambers equipped with a response lever, house light, and sonalert. A steel grid floor is wired for presentation of electric shock. Each trial consists of a fifteen-second warning tone (conditioned stimulus), continuing for an additional fifteen seconds accompanied by electric shock, (unconditioned stimulus). The rat can terminate a trial at any point by depression of the response lever. […]
The following experimental parameters are recorded by computer; (1) the number of interval responses, (2) the number of avoidance responses, (3) the number of escape responses, and (4) the number of trials in which no response occurred.
as §1, with “Potential anti-psychotic compounds suppress avoidance responding and increase escape responding.” left out

| Structure (SMILES) | Active at (dose), shelf-jump [1] [mg/kg] | displacement of specific 3H-8-OH-DPAT binding from hippocampal membranes [2] [%] | ED50 ([3]; perorally, unit inferred) [mg/kg] | ED50 ([3]; peroral administration, range in parentheses) [mg/kg] |
| --- | --- | --- | --- | --- |
| CC1CC(=O)N(CCCCN2CCN(c3ncccn3)CC2)S(=O)(=O)N1 (stereo not drawn) [Example 3, 5,6-Dihydro-5-methyl-2-[4-[4-(2-pyrimidinyl)-1-piperazinyl]butyl]-2H-1,2,6-thiadiazin-3(4H)-one 1,1-dioxide] | 40 |  |  |  |
| CC1CC(=O)N(CCCCN2CCN(c3cncc(Cl)n3)CC2)S(=O)(=O)N1 (stereo not drawn) [Example 1, 2-[4-[4-(6-Chloro-2-pyrazinyl)-1-piperazinyl]butyl]-5,6-dihydro-5-methyl-2H-1,2,6-thiadiazin-3(4H)-one 1,1 dioxide] | 40 | 61 | 32.5 |  |
| O=C1CC2(CCCC2)CC(=O)N1CCCCN1CCN(c2ncccn2)CC1 [Buspirone, 8-[4-[4-(2-pyrimidinyl)-1-piperazinyl]butyl]-8-azaspiro[4.5]decane-7,9-dione, reference compound] |  |  |  | 47.9 |
| O=C1N(CCCCN2CCN(c3ncccn3)CC2)S(=O)(=O)NC12CCCCC2 [Example 2, 3-[4-[4-(2-Pyrimidinyl)-1-piperazinyl]butyl]2-thia-1,3-diazaspiro[4,5]decan-4-one 2,2-dioxide] | 40 |  |  |  |
